Values joined by “and” are separate entries in the source; they are usually repeats but may differ in a detail not shown here. Equal entries are not always repeated.
Key:
Type in all cases: in vivo
[1] = test system: Fasciola hepatica aged 6 weeks resistant to salicylanilides (closantel), susceptible to the other drug families used; test: Controlled test in sheep: efficacy against immature F. hepatica, salicylanilide-resistant strain; settings: for efficacy: given alone at low dose rates
Excerpt: (§1) In six controlled tests, a total of 212 merino wethers aged 1 to 2.5 years were used. The sheep were obtained from fluke free areas in North-West New South Wales.
(§2) Some isolates used in the trials were obtained from existing laboratory populations but the majority of the strains were isolated from the field, their resistance status was defined in several controlled tests and the isolates were then maintained in the laboratory. A laboratory strain from Compton U.K. (Compton Paddock Laboratories, Newbury, Berks. UK) was included in the tests. […] The other isolates originated from properties where salicylanilide compounds were used with variable frequency for the control of fasciolosis or haemonchosis, and also various benzimidazole carbamates were used for the control of gastrointestinal nematodes. Those isolates were further selected in the laboratory with benzimidazole compounds, such as luxabendazole (Hoechst Pty.Ltd., Frankfurt am Main, Germany) or by 8 weekly dosing a group of sheep with triclabendazole (Fasinex, CIBA-GEIGY Aust.Ltd., Pendle Hill, NSW Australia) in a 2 acre paddock with natural snail habitats contaminated with Fasciola hepatica .
(§3) In the trials, F.hepatica populations were isolated from properties and passaged through suitable intermediate host snails, Lymnaea tomentosa, L.viridis and L.columella in the laboratory. Sheep were then inoculated with the metacercariae of the selected strains by intraruminal injection of metacercariae suspended in 0.4% carboxy-methylcellulose solution. The sheep were divided into groups of 4 or 5. Standardised control tests (Boray, 1969), were carried out to determine the efficacy of various drugs and combinations against immature F.hepatica isolates.
(§4) Percentage reductions of fluke burdens for the sum of the individual drugs and for the combinations were estimated and their 95 % confidence limits were determined.
(§5) The drugs tested were triclabendazole (Fasinex, CIBA-GEIGY Australia Ltd.), clorsulon (Curatrem, MSD AGVET Rahway, New Jersey, USA), luxabendazole (Hoechst Pty.Ltd., Frankfurt am Main, Germany), closantel (Seponver, SmithKline Animal Health Australia Ltd.), closantel injectible (Flukiver, Janssen Pharma, Belgium), clorsulon injectible (Ivomec F, MSD Agvet,Rahway, New Jersey, USA) and nitroxynil injectible (Trodax, Cyanamid-Webster Australia Ltd.) The commercial formulations were used and for uniform pharmacokinetic distribution they were injected intraruminally (for those drugs it is equal to oral dosing) at the selected dose rate according to the body weight of the sheep 6 weeks after inoculation. In the trials with the injectible nitroxynil the drugs were applied as a subcutaneous injection. For each trial a group of sheep were left untreated as controls. The sheep were slaughtered 16 weeks after inoculation and the flukes were recovered from the livers and counted. […] The dose rates were selected based on many preliminary studies on the efficacy against F.hepatica aged 6 weeks. […] According to accepted standards (Boray, 1969) high efficacy is achieved when the drug reduces the fluke burden by 90% or more.

[2] = test system: Fasciola hepatica aged 6 weeks (Susceptible to the drugs used); test: Controlled test in sheep: efficacy against immature F. hepatica, susceptible strain
Excerpt: as §1, §2, §3, §4, §5

[3] = test system: Fasciola hepatica aged 6 weeks resistant to triclabendazole; test: Controlled test in sheep: efficacy against immature F. hepatica, triclabendazole-resistant strain
Excerpt: as §1, §2, §3, §4, §5

[4] = test system: Fasciola hepatica aged 6 weeks resistant to salicylanilides (closantel) and benzimidazole carbamates (luxabendazole); test: Controlled test in sheep: efficacy against immature F. hepatica, multiple resistant Armidale-Morven strain
Excerpt: as §1, §2, §3, §4, §5

[5] = test system: Fasciola hepatica aged 6 weeks, resistant to salicylanilides; test: Controlled test in sheep, subcutaneous injection: efficacy against immature F. hepatica, Hampton II strain
Excerpt: as §1, §2, §3, §4, §5

[6] = 5.0 mg/kg intraruminal, 5 mg/kg
[7] = 7.5 mg/kg intraruminal, 7.5 mg/kg
[8] = 3.0 mg/kg subcutaneous injection
[9] = 5.0 mg/kg intraruminal, listed as luxabendazole, 5 mg/kg
[10] = 7.0 mg/kg subcutaneous injection
[11] = 2.0 mg/kg intraruminal, 2 mg/kg

## CCCSc1ccc2nc(NC(=O)OC)[nH]c2c1 [Albendazole, albendazole]
[1]; 5.0 mg/kg intraruminal
  Mean No. of Fluke (SD): 52.7 (6.9)
  Percent Reduction of Fluke Burden (95% Confidence limits): 28.4 (6, 72) %
[1]
  efficacy: very low efficacy

## Nc1cc(C(Cl)=C(Cl)Cl)c(S(N)(=O)=O)cc1S(N)(=O)=O [Clorsulon, clorsulon]
[2]; 3.0 mg/kg intraruminal
  Mean No. of Fluke (SD): 32.5 (4.4)
  Percent Reduction of Fluke Burden (95% Confidence limits): 25.9 (6, 67) %
[2]; 5.0 mg/kg intraruminal
  Mean No. of Fluke (SD): 30.0 (11.6)
  Percent Reduction of Fluke Burden (95% Confidence limits): 31.6 (9, 67) %
[1]; 3.0 mg/kg intraruminal
  Mean No. of Fluke (SD): 57.5 (19.6)
  Percent Reduction of Fluke Burden (95% Confidence limits): 21.9 (3, 74) %
[1]
  efficacy: very low efficacy
[3]; 3.0 mg/kg intraruminal
  Mean No. of Fluke (SD): 55.7 (42.9)
[3]; 3.0 mg/kg intraruminal, 3 mg/kg
  Percent Reduction of Fluke Burden (95% Confidence limits): 30% and 30.5 (2, 91) %
[3]; 5.0 mg/kg intraruminal
  Mean No. of Fluke (SD): 45.0 (26.3)
[3]; [6]
  Percent Reduction of Fluke Burden (95% Confidence limits): 43% and 43.9 (7, 89) %
[4]; 5.0 mg/kg intraruminal
  Mean No. of Fluke (SD): 41.0 (3.7)
[4]; [6]
  Percent Reduction of Fluke Burden (95% Confidence limits): 52.7 (33,72) %
[4]; 5.0 mg/kg intraruminal, listed as clorsulon, 5 mg/kg
  Percent Reduction of Fluke Burden (95% Confidence limits): 52%
[5]; 2.0 mg/kg subcutaneous injection
  Mean No. of Fluke (SD): 18.4 (6.6)
[5]; 2.0 mg/kg subcutaneous injection, 2 mg/kg
  Percent Reduction of Fluke Burden (95% Confidence limits): 36.6 (9.76) %
[5]; 2.0 mg/kg subcutaneous injection, listed as clorsulon, 2 mg/kg
  Percent Reduction of Fluke Burden (95% Confidence limits): 36.5%

## Cc1cc(C(C#N)c2ccc(Cl)cc2)c(Cl)cc1NC(=O)c1cc(I)cc(I)c1O (centres unmarked) [Closantel, closantel]
[1]; 5.0 mg/kg intraruminal
  Mean No. of Fluke (SD): 62.0 (17.1)
[1]; 7.5 mg/kg intraruminal
  Mean No. of Fluke (SD): 48.2 (38 6)
  Percent Reduction of Fluke Burden (95% Confidence limits): 34.5 (10, 72) %
[1]
  efficacy: very low efficacy
[4]; 7.5 mg/kg intraruminal
  Mean No. of Fluke (SD): 118 (113.3)
  Percent Reduction of Fluke Burden (95% Confidence limits): 0.0%
[4]; [7]
  Percent Reduction of Fluke Burden (95% Confidence limits): inefficient
[5]; [8]
  Mean No. of Fluke (SD): 24.4 (14.4)
  Percent Reduction of Fluke Burden (95% Confidence limits): 15.9%

## COC(=O)Nc1nc2ccc(Sc3ccccc3)cc2[nH]1 [Fenbendazole, fenbendazole]
[1]; 5.0 mg/kg intraruminal
  Mean No. of Fluke (SD): 71.0 (8.0)
  Percent Reduction of Fluke Burden (95% Confidence limits): 3.6%
[1]
  efficacy: very low efficacy

## COC(=O)Nc1nc2cc(OS(=O)(=O)c3ccc(F)cc3)ccc2[nH]1 [Luxabendazole, luxabendazole]
[2]; 5.0 mg/kg intraruminal
  Mean No. of Fluke (SD): 32.0 (9.5)
[2]; [6]
  Percent Reduction of Fluke Burden (95% Confidence limits): 27.0 (6, 67) %
[2]; [9]
  Percent Reduction of Fluke Burden (95% Confidence limits): 26%
[1]; 5.0 mg/kg intraruminal
  Mean No. of Fluke (SD): 51.7 (25.3)
[1]
  efficacy: very low efficacy
[3]; 5.0 mg/kg intraruminal
  Mean No. of Fluke (SD): 62.7 (61.3)
[3]; [6]
  Percent Reduction of Fluke Burden (95% Confidence limits): 21.7 (1, 95) %
[3]; [9]
  Percent Reduction of Fluke Burden (95% Confidence limits): 21%
[4]; 7.5 mg/kg intraruminal
  Mean No. of Fluke (SD): 89.0 (22.6)
  Percent Reduction of Fluke Burden (95% Confidence limits): 0.0%
[4]; [7]
  Percent Reduction of Fluke Burden (95% Confidence limits): inefficient

## N#Cc1cc(I)c(O)c([N+](=O)[O-])c1 [Nitroxynil, nitroxynil]
[5]; [10]
  Mean No. of Fluke (SD): 26.6 (6.6)
  Percent Reduction of Fluke Burden (95% Confidence limits): 8.3%

## COC(=O)Nc1nc2ccc([S+]([O-])c3ccccc3)cc2[nH]1 (centres unmarked) [Oxfendazole, oxfendazole]
[1]; 5.0 mg/kg intraruminal
  Mean No. of Fluke (SD): 74.5 (14.8)
[1]
  efficacy: very low efficacy

## CSc1nc2cc(Cl)c(Oc3cccc(Cl)c3Cl)cc2[nH]1 [Triclabendazole, triclabendazole]
[2]; 2.0 mg/kg intraruminal 6 weeks after inoculation, slaughter at 16 weeks
  Mean No. of Fluke (SD): 9.2 (8.3)
[2]; 2.0 mg/kg intraruminal, vs untreated controls, 2 mg/kg
  Percent Reduction of Fluke Burden (95% Confidence limits): 78.9 (58, 91) %
[2]; 2.0 mg/kg intraruminal, vs untreated controls, listed as triclabendazole, 2 mg/kg
  Percent Reduction of Fluke Burden (95% Confidence limits): 79%
[3]; 2.0 mg/kg intraruminal
  Mean No. of Fluke (SD): 55.0 (51.1)
[3]; [11]
  Percent Reduction of Fluke Burden (95% Confidence limits): 31.4 (2, 91) %
[3]; 2.0 mg/kg intraruminal, listed as triclabendazole, 2 mg/kg
  Percent Reduction of Fluke Burden (95% Confidence limits): 30%
[4]; 2.0 mg/kg intraruminal
  Mean No. of Fluke (SD): 25.5 (13.5)
  Percent Reduction of Fluke Burden (95% Confidence limits): 70%
[4]; [11]
  Percent Reduction of Fluke Burden (95% Confidence limits): 70.6 (53, 83) %

Source: patent publication EP0710105B1, “SYNERGISTIC ANTHELMINTIC COMPOSITIONS AGAINST FASCIOLA HEPATICA AND OTHER FASCIOLA SPECIES” (THE AUSTRALIAN NATIONAL UNIVERSITY, priority 1993, dated 1994)
